Results taken from ChEMBL document CHEMBL4428125, “8-Substituted 1,3-dimethyltetrahydropyrazino[2,1-f]purinediones: Water-soluble adenosine receptor antagonists and monoamine oxidase B inhibitors” (Bioorg Med Chem, 2016).
pIC50, pKi: −log10 of the molar value. In brackets after ≈: the same amount, converted by molar mass. Activity calls are given as the source filed them. The rule behind the calls is not given here.

What was measured:
[1] = biological target: T1, Amine oxidase [flavin-containing] B (Homo sapiens, UniProt P27338); assay: Inhibition of recombinant human MAO-B expressed in baculovirus infected BTI insect cells at 10 uM preincubated for 30 mins followed by addition of p-tyramine as substrate measured over 45 mins by Amplex Red MAO assay relative to control; conditions: 0.75 h
T1 sequence (P27338 whole entry): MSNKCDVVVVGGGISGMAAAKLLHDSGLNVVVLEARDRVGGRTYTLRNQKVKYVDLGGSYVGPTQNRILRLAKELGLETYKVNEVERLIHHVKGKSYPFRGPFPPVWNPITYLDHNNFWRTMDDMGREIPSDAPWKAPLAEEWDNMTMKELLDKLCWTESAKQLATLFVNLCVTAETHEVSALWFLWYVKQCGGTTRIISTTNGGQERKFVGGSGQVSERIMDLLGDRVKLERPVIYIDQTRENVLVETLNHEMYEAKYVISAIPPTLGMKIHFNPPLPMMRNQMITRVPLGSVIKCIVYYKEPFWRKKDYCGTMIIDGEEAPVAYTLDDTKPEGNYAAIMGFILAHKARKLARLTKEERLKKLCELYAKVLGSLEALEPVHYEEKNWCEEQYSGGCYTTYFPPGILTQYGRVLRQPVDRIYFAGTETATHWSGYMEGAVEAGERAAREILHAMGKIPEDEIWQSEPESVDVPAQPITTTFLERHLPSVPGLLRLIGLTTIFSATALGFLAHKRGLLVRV

Adenosine receptor A2b [2] = biological target: T2, Adenosine receptor A2b (Homo sapiens, UniProt P29275); assay: Displacement of [3H]PSB-603 from human A2B receptor expressed in CHO cell membrane measured after 75 mins by liquid scintillation counting method; type: cell membranes
T2 sequence (P29275 whole entry): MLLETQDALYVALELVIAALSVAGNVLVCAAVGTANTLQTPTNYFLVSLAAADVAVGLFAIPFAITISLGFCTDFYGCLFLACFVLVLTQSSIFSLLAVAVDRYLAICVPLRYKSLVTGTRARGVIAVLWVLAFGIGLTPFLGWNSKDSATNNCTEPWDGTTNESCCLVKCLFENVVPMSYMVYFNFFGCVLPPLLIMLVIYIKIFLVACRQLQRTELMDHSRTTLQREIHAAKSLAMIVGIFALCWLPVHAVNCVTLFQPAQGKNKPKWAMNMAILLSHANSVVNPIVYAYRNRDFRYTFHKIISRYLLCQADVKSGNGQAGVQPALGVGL

Adenosine receptor A1 [3] = biological target: T3, Adenosine receptor A1 (Rattus norvegicus, UniProt P25099); assay: Displacement of [3H]CCPA from rat A1 receptor by liquid scintillation counting method
T3 sequence (P25099 whole entry): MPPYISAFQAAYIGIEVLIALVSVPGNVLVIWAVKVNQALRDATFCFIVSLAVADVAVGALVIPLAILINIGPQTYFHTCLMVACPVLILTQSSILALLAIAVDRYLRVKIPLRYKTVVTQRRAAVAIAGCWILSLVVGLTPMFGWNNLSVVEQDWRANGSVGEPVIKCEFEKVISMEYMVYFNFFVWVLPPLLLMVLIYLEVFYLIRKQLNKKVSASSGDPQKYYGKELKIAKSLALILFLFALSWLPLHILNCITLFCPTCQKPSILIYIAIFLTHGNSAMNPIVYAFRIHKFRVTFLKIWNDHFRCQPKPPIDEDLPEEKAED

Adenosine receptor A3 = biological target: T4, Adenosine receptor A3 (Homo sapiens, UniProt P0DMS8); assay: Displacement of [3H]PSB-11 from human A3 receptor expressed in CHO cell membrane by liquid scintillation counting method relative to control; type: cell membranes
T4 sequence (P0DMS8 whole entry): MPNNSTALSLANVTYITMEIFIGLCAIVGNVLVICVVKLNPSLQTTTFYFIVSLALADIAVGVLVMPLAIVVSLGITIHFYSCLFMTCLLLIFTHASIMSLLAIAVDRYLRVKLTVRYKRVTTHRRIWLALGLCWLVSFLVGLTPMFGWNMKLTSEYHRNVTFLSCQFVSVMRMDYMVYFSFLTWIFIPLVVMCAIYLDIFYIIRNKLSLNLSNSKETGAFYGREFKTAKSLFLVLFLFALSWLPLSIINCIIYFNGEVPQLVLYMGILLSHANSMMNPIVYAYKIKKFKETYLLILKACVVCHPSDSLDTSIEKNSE

Adenosine receptor A1 [4] = biological target: T3, Adenosine receptor A1; assay: Displacement of [3H]MSX from rat A1 receptor measured after 75 mins by liquid scintillation counting method
[5] = biological target: T5, Adenosine receptor A2b (Homo sapiens) (UniProt P29275); assay: Displacement of [3H]PSB-603 from human A2B receptor expressed in CHO cell membrane measured after 75 mins by liquid scintillation counting method relative to control; type: cell membranes
T5 sequence (whole entry): T2 sequence (P29275 whole entry)

Adenosine receptor A1 [6] = biological target: T6, Adenosine receptor A1 (Homo sapiens, UniProt P30542); assay: Displacement of [3H]CCPA from human A1 receptor expressed in CHO cell membrane by liquid scintillation counting method; type: cell membranes
T6 sequence (P30542 whole entry): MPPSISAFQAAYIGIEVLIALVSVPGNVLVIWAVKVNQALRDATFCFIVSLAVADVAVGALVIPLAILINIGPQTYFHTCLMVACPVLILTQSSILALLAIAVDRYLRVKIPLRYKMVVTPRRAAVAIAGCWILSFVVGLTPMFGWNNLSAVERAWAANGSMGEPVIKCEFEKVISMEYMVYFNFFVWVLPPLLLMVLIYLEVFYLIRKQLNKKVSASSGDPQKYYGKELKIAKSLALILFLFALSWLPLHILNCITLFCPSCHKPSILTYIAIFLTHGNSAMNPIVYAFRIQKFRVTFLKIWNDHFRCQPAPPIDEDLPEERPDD

[7] = biological target: T1, Amine oxidase [flavin-containing] B; assay: Inhibition of recombinant human MAO-B expressed in baculovirus infected BTI insect cells preincubated for 30 mins followed by addition of p-tyramine as substrate measured over 45 mins by Amplex Red MAO assay
[8] = biological target: T7, Adenosine receptor A3 (Homo sapiens) (UniProt P0DMS8); assay: Displacement of [3H]PSB-11 from human A3 receptor expressed in CHO cell membrane at 10 uM by liquid scintillation counting method relative to control relative to control; type: cell membranes
T7 sequence (whole entry): T4 sequence (P0DMS8 whole entry)

Adenosine receptor A2a [9] = biological target: T8, Adenosine receptor A2a (Homo sapiens, UniProt P29274); assay: Displacement of [3H]MSX from human A2A receptor by liquid scintillation counting method
[10] = biological target: T9, Amine oxidase [flavin-containing] A (Homo sapiens, UniProt P21397); assay: Inhibition of recombinant human MAO-A expressed in baculovirus infected BTI insect cells preincubated for 30 mins followed by addition of p-tyramine as substrate measured over 45 mins by Amplex Red MAO assay
T9 sequence (P21397 whole entry): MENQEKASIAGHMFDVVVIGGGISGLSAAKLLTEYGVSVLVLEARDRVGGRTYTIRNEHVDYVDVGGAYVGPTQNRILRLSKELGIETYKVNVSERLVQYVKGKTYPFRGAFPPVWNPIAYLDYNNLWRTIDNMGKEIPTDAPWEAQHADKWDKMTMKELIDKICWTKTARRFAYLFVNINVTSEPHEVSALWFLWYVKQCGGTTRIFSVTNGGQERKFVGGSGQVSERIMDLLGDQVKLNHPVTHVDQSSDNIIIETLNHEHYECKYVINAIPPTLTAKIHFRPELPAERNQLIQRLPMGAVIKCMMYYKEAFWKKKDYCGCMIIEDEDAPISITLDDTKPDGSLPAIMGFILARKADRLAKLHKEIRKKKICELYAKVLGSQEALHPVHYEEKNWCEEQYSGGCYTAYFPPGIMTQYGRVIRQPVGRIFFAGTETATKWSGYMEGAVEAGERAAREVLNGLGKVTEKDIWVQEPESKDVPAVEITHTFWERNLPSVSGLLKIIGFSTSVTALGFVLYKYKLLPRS

[11] = biological target: T9, Amine oxidase [flavin-containing] A; assay: Inhibition of recombinant human MAO-A expressed in baculovirus infected BTI insect cells at 10 uM preincubated for 30 mins followed by addition of p-tyramine as substrate measured over 45 mins by Amplex Red MAO assay relative to control; conditions: 0.75 h
[12] = biological target: T7, Adenosine receptor A3 (Homo sapiens); assay: Displacement of [3H]PSB-11 from human A3 receptor expressed in CHO cell membrane at 1 uM by liquid scintillation counting method relative to control relative to control; type: cell membranes
Adenosine receptor A2a [13] = biological target: Adenosine receptor A2a (Rattus norvegicus, UniProt P30543); assay: Displacement of [3H]MSX from A2A receptor in rat brain striatum membranes measured after 30 mins by liquid scintillation counting method; type: cell membranes
[14] = biological target: Adenosine receptor A2a (Rattus norvegicus) (UniProt P30543); assay: Displacement of [3H]MSX from A2A receptor in rat brain striatum membranes at 1 uM measured after 30 mins by liquid scintillation counting method relative to control; type: cell membranes
[15] = biological target: T10, Adenosine receptor A1 (Rattus norvegicus) (UniProt P25099); assay: Displacement of [3H]CCPA from A1 receptor in rat brain cortex membranes at 1.5 uM by liquid scintillation counting method; type: cell membranes
T10 sequence (whole entry): T3 sequence (P25099 whole entry)

[16] = biological target: T5, Adenosine receptor A2b (Homo sapiens); assay: Displacement of [3H]PSB-603 from human A2B receptor expressed in CHO cell membrane at […] relative to control; type: cell membranes
Adenosine receptor A1 [17] = biological target: T3, Adenosine receptor A1; assay: Displacement of [3H]CCPA from A1 receptor in rat brain cortex membranes by liquid scintillation counting method; type: cell membranes
Adenosine receptor A2b [18] = biological target: T2, Adenosine receptor A2b; assay: Displacement of [3H]PSB-603 from human A2B receptor expressed in CHO cell membrane; type: cell membranes
[19] = biological target: T5, Adenosine receptor A2b (Homo sapiens); assay: Displacement of [3H]PSB-603 from human A2B receptor expressed in CHO cell membrane at 1 uM relative to control; type: cell membranes
Adenosine receptor A2a [20] = biological target: T8, Adenosine receptor A2a; assay: Displacement of [3H]MSX from human A2A receptor measured after 30 mins by liquid scintillation counting method
Homo sapiens = species on record: Homo sapiens; assay: Selectivity ratio, ratio of Ki for human A2A receptor to Ki for human A1 receptor
[21] = biological target: T11, Adenosine receptor A1 (Homo sapiens) (UniProt P30542); assay: Agonist activity at recombinant human A1 receptor expressed in CHO cells assessed as inhibition of forskolin-induced cAMP accumulation at 1 uM preincubated for 20 mins prior to forskolin-stimulation measure after 5 mins by liquid scintillation counting method; type: functional, cell-based
T11 sequence (whole entry): T6 sequence (P30542 whole entry)

Adenosine receptor A2a [22] = biological target: T8, Adenosine receptor A2a; assay: Agonist activity at recombinant human A2A receptor expressed in CHO cells assessed as increase in forskolin-induced cAMP level at 10 uM preincubated for 20 mins prior to forskolin-stimulation measure after 5 mins by liquid scintillation counting method; type: functional, cell-based
[23] = biological target: T11, Adenosine receptor A1 (Homo sapiens); assay: Agonist activity at recombinant human A1 receptor expressed in CHO cells assessed as inhibition of forskolin-induced cAMP accumulation at 10 uM preincubated for 20 mins prior to forskolin-stimulation measure after 5 mins by liquid scintillation counting method; type: functional, cell-based
Adenosine receptor A2a [24] = biological target: T8, Adenosine receptor A2a; assay: Agonist activity at recombinant human A2A receptor expressed in CHO cells assessed as increase in forskolin-induced cAMP level at 1 uM preincubated for 20 mins prior to forskolin-stimulation measure after 5 mins by liquid scintillation counting method; type: functional, cell-based
[25] = Thermodynamic solubility of the compound at pH 7.4; type: physicochemical; conditions: buffer, read-out: Therm_solubility

Sequence of Adenosine receptor A2a (Rattus norvegicus, UniProt P30543) (P30543 whole entry): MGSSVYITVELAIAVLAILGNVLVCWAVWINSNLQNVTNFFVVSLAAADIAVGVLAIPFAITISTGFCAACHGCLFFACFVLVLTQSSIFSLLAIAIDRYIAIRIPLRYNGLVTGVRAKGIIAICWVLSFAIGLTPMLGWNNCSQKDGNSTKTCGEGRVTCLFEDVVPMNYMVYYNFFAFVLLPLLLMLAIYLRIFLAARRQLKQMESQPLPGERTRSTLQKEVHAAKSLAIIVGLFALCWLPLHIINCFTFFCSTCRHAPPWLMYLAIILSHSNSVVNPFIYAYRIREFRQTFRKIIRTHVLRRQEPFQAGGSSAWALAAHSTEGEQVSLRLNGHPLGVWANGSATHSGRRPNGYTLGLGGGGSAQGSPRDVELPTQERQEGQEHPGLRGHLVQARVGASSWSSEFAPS
T8 sequence (P29274 whole entry): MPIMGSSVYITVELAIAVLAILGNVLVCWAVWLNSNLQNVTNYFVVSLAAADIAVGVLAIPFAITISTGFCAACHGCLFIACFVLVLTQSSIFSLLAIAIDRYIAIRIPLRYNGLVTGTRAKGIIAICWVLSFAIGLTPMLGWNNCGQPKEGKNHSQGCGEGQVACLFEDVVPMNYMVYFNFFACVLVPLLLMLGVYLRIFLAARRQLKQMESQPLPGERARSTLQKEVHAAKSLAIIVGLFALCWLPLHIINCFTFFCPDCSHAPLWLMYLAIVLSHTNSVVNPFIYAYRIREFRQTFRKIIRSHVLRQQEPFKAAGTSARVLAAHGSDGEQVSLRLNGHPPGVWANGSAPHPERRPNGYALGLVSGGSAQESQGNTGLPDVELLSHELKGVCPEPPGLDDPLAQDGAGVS
Sequence of Adenosine receptor A2a (Rattus norvegicus) (P30543 whole entry): as the sequence (P30543 whole entry) above

Compound	inhibition at 10 µM [1]	pKi (Adenosine receptor A2b [2])	pKi (Adenosine receptor A1 [3])	pKi (Adenosine receptor A3)	pKi (Adenosine receptor A1 [4])	Activity [5]	pKi (Adenosine receptor A1 [6])	pIC50 [7]	Activity [8]	pKi (Adenosine receptor A2a [9])	pIC50 [10]	inhibition at 10 µM [11]	Activity [12]	pKi (Adenosine receptor A2a [13])	Activity [14]	Activity [15]	pKi (Adenosine receptor A1 [17])	pKi (Adenosine receptor A2b [18])	Activity [19]	further results
Cn1c(=O)c2c(nc3n2CCN(Cc2ccccc2)C3)n(C)c1=O	36%	< 6.00	7.10	< 5.00	6.22	15%	6.58	< 5.00	21%	5.97										
Cn1c(=O)c2c(nc3n2CCN(Cc2ccc(Cl)c(Cl)c2)C3)n(C)c1=O		< 6.00	6.45	< 6.00	6.49	15%	6.10	6.71		5.82	< 5.00	5%	13%							
Cn1c(=O)c2c(nc3n2CCN(Cc2nocc2-c2ccccc2)C3)n(C)c1=O	39%			5.06				< 5.00						< 6.00	5%	21%	< 5.82			inhibition [16]: 18%
Cn1c(=O)c2c(nc3n2CCN(c2ccc(Br)cc2)C3)n(C)c1=O				< 6.00				6.88					2%	5.41		15%	< 5.82	< 6.00	11%	
Cn1c(=O)c2c(nc3n2CCN(c2ccc(Cl)cc2)C3)n(C)c1=O	15%			< 6.00				< 5.00					2%	< 5.00	34%	1%	< 5.82	< 6.00	9%	
Cn1c(=O)c2c(nc3n2CCN(CCCc2ccc(Cl)cc2)C3)n(C)c1=O	44%			< 5.00			7.18	< 5.00	34%		< 5.00	12%		6.50			6.45	< 6.00	7%	pKi (Adenosine receptor A2a [20]): 6.64; Ratio Ki (Homo sapiens): 4; Activity [21]: inactive; Activity (Adenosine receptor A2a [22]): inactive; Activity [23]: inactive; Activity (Adenosine receptor A2a [24]): inactive; solubility thermodynamic [25]: 4 µg/mL (≈ 10.3 µM)
